In patent publication US6858618B2, “Use of rosuvastatin (zd-4522) in the treatment of heterozygous familial hypercholesterolemia” (AstraZeneca AB, priority 2000, dated 2005):
Marks after values point to notes of the source that are not given here.

How the values were obtained:
[1] = system: subjects with heterozygous familial hypercholesterolemia; experiment: 24-week randomised double-blind Phase III trial of ZD4522 versus atorvastatin: efficacy (lipids, guideline targets, CRP); type: in vivo, human; conditions: for mean % reduction in LDL-C / Percentage subjects reaching EAS target for LDL-C levels at Week 18, high-risk / Percentage subjects reaching EAS target for LDL-C levels at Week 18, overall / Percentage subjects reaching NCEP target for LDL-C levels at Week 18, high-risk / Percentage subjects reaching NCEP target for LDL-C levels at Week 18, overall / Percentage change from baseline to Week 18 in inflammatory marker CRP / Lsmean of percentage change from baseline to Week 18 in ApoA-I / Lsmean of percentage change from baseline to Week 18 in ApoB / Lsmean of percentage change from baseline to Week 18 in ApoB/ApoA-I ratio / Lsmean of percentage change from baseline to Week 18 in HDL-C / Lsmean of percentage change from baseline to Week 18 in LDL-C / Lsmean of percentage change from baseline to Week 18 in LDL-C/HDL-C ratio / Lsmean of percentage change from baseline to Week 18 in Non-HDL-C/HDL-C ratio / Lsmean of percentage change from baseline to Week 18 in TC / Lsmean of percentage change from baseline to Week 18 in TC/HDL-C ratio / Lsmean of percentage change from baseline to Week 18 in TG: HeFH subjects; for mean % reduction in LDL-C / Percentage subjects reaching EAS target for LDL-C levels at Week 18, high-risk / Percentage subjects reaching EAS target for LDL-C levels at Week 18, overall / Percentage subjects reaching NCEP target for LDL-C levels at Week 18, high-risk / Percentage subjects reaching NCEP target for LDL-C levels at Week 18, overall / Percentage change from baseline to Week 18 in inflammatory marker CRP: 20/40/80 mg; for mean % reduction in LDL-C: primary efficacy analysis; for Percentage subjects reaching EAS target for LDL-C levels at Week 18, high-risk / Percentage subjects reaching EAS target for LDL-C levels at Week 18, overall / Percentage subjects reaching NCEP target for LDL-C levels at Week 18, high-risk / Percentage subjects reaching NCEP target for LDL-C levels at Week 18, overall / Lsmean of percentage change from baseline to Week 18 in ApoA-I / Lsmean of percentage change from baseline to Week 18 in ApoB / Lsmean of percentage change from baseline to Week 18 in ApoB/ApoA-I ratio / Lsmean of percentage change from baseline to Week 18 in HDL-C / Lsmean of percentage change from baseline to Week 18 in LDL-C / Lsmean of percentage change from baseline to Week 18 in LDL-C/HDL-C ratio / Lsmean of percentage change from baseline to Week 18 in Non-HDL-C/HDL-C ratio / Lsmean of percentage change from baseline to Week 18 in TC / Lsmean of percentage change from baseline to Week 18 in TC/HDL-C ratio / Lsmean of percentage change from baseline to Week 18 in TG: Week 18, LOCF on ITT population; for Percentage change from baseline to Week 18 in inflammatory marker CRP: Week 18, observed data; for Lsmean of percentage change from baseline to Week 18 in ApoA-I / Lsmean of percentage change from baseline to Week 18 in ApoB / Lsmean of percentage change from baseline to Week 18 in ApoB/ApoA-I ratio / Lsmean of percentage change from baseline to Week 18 in HDL-C / Lsmean of percentage change from baseline to Week 18 in LDL-C / Lsmean of percentage change from baseline to Week 18 in LDL-C/HDL-C ratio / Lsmean of percentage change from baseline to Week 18 in Non-HDL-C/HDL-C ratio / Lsmean of percentage change from baseline to Week 18 in TC / Lsmean of percentage change from baseline to Week 18 in TC/HDL-C ratio / Lsmean of percentage change from baseline to Week 18 in TG: oral once daily, forced titration 20/40/80 mg
Experimental: We have conducted a Phase III trial designed to assess the efficacy of ZD4522 in subjects with HeFH. The dose-response of ZD4522 was compared with atorvastatin using the percentage change from baseline in LDL-C levels as the primary end-point. Doses of ZD4522 up to 80 mg per day were use& Atorvastatin was chosen as the comparator statin in this trial because it has the best LDL-C lowering activity of the currently marketed statins.
The primary objective was to compare the efficacy of ZD4522 (titrated to 80 mg) with that of atorvastatin (titrated to 80 mg) in reducing low-density lipoprotein cholesterol (LDL-C) levels in subjects with heterozygous familial hypercholesterolemia (HeFH) after 18 weeks of treatment.
Population: A total of 265 (200 in the ZD4522 group, 65 in the atorvastatin group) randomised to and evaluable subjects with documented heterozygous F, derived from approximately 1240 recruited subjects, were required to enable 80% power in detecting a 6% difference between groups in the percentage change from baseline in LDL-C levels.
Key exclusion criteria: Various concomitant illnesses, including active liver disease or hepatic dysfunction (defined by an alanine aminotransferase [ALT], aspartate amninotransferase [AST] or bilirubin concentration […] of normal [ULN]), active arterial disease, history of malignancy (unless basal or squamous cell skin carcinoma), uncontrolled hypertension, and uncontrolled hypothyroidism; serum creatine kinase (CK) concentration >3×ULN; usage of concomitant medications known to affect the lipid profile or present a potential safety concern (for example, through drug interaction).
Efficacy: Fasting LDL-C, total cholesterol (TC), high-density lipoprotein cholesterol (HDL-C), and TG were assessed at, Weeks 0, 2, 6, 12, and 18; fasting apolipoprotein (ApoB) and apolipoprotein A-I (ApoA-I) were assessed at Weeks 0 and 18; C-reactive protein (CRP) was assessed at Weeks 0 and 18. Dietary compliance throughout the trial was assessed and evaluated.
The primary end-point was the percentage change from baseline to Week 18 in LDL-C levels, and was analysed using analysis of variance (ANOVA) on last observations carried forward (LOCF) from an intention-to-treat (ITT) population; the initial ANOVA model included terms for treatment, center, and center-by-treatment interaction. Additional analyses using observed data from ITT and per-protocol (PP) populations were used to confirm the robustness of the Main ITT analysis.
Percentage changes from baseline in the other lipids and lipoproteins were secondary end-points of the trial and were analysed using ANOVA. The other secondary end-points of the percentage of subjects in the ITT population who achieved targets for LDL-C levels specified by the National Cholesterol Education Program (NCEP) or the European Atherosclerosis Society (EAS), and the percentage change from baseline in the inflammatory marker CRP, were summarised only.

[2] = system: subjects with heterozygous familial hypercholesterolemia; experiment: 24-week randomised double-blind Phase III trial of ZD4522 versus atorvastatin: safety assessments; conditions: HeFH subjects, 20/40/80 mg, safety population
Experimental: A further secondary objective was to determine the safety of ZD4522.
Design: A 24-week, randomised, double-blind, 2-group, parallel-group, forced-titration, multicentre, multinational trial. After a 6-week dietary lead-in period, subjects were randomised to treatment with either ZD4522 20 mg, or atorvastatin 20 mg for 6 weeks. Following this initial treatment period, all subjects with an LDL-C level >1.3 mmol/L (50 mg/dL) were force-titrated at 6-week intervals as follows; from ZD4522 20 to 40 to 80 mg, and from atorvastatin 20 to 40 to 80 mg. The maximum titrated dose of either treatment after 18 weeks was 80 mg.
Dosage: Subjects took oral doses of trial treatment once daily, approximately 3 hours after the evening meal. Doses of treatments were as follows; ZD4522 20, 40, and 80 mg, atorvastatin 20, 40, and 80 mg. Subjects had their doses titrated up at 6-week intervals in a sequential manner, if appropriate.
Safety: Standard safety assessments included adverse event pot clinical laboratory data (hepatic biochemistry, CK, renal biochemistry, haematology, urinalysis), vital signs, electrocardiograms (ECGs) and physical examination.

Structure (SMILES): CC(C)c1c(C(=O)Nc2ccccc2)c(-c2ccccc2)c(-c2ccc(F)cc2)n1CC[C@@H](O)C[C@@H](O)CC(=O)O [Atorvastatin, atorvastatin]
- mean % reduction in LDL-C ([1]; 18 weeks, LOCF): 50.41%
- Percentage subjects reaching EAS target for LDL-C levels at Week 18, high-risk [1]: 24.2%
- Percentage subjects reaching EAS target for LDL-C levels at Week 18, overall [1]: 24.1%
- Percentage subjects reaching NCEP target for LDL-C levels at Week 18, high-risk [1]: 3.2%
- Percentage subjects reaching NCEP target for LDL-C levels at Week 18, overall [1]: 46.0%
- Percentage change from baseline to Week 18 in inflammatory marker CRP [1]: 31.28%
- Lsmean of percentage change from baseline to Week 18 in ApoA-I [1]: −2.33^b %
- Lsmean of percentage change from baseline to Week 18 in ApoB [1]: −44.44^b %
- Lsmean of percentage change from baseline to Week 18 in ApoB/ApoA-I ratio [1]: −42.46^b %
- Lsmean of percentage change from baseline to Week 18 in HDL-C [1]: 2.91^b %
- Lsmean of percentage change from baseline to Week 18 in LDL-C [1]: −50.41^b %
- Lsmean of percentage change from baseline to Week 18 in LDL-C/HDL-C ratio [1]: −51.16^b %
- Lsmean of percentage change from baseline to Week 18 in Non-HDL-C/HDL-C ratio [1]: −49.86^b %
- Lsmean of percentage change from baseline to Week 18 in TC [1]: −42.13^b %
- Lsmean of percentage change from baseline to Week 18 in TC/HDL-C ratio [1]: −43.17^b %
- Lsmean of percentage change from baseline to Week 18 in TG [1]: −31.60^ns %
- clinically significant elevations (≧10×ULN) in CK [2]: no clinically significant elevations
- incidence of clinically significant elevations in ALT (≧3×ULN) [2]: 1.1%
- number of patients with clinically significant elevations in ALT (≧3×ULN) [2]: 2 patients
- overall incidence of AEs (including treatment-related AEs, AEs leading to withdrawals and SAEs) [2]: 65.8%

Structure (SMILES): CC(C)c1nc(N(C)S(C)(=O)=O)nc(-c2ccc(F)cc2)c1/C=C/[C@@H](O)C[C@@H](O)CC(=O)O [ZD4522, (E)-7-[4-(4-fluorophenyl)-6-isopropyl-2-[methyl(methylsulfonyl)amino]pyrimidin-5-yl](3R,5S)-3,5-dihydroxyhept-6-enoic acid]
- difference between treatments in % reduction in LDL-C (versus atorvastatin 20/40/80 mg) ([1]; 18 weeks, LOCF, ZD4522 20/40/80 mg versus atorvastatin 20/40/80 mg): > 6%
- mean % reduction in LDL-C ([1]; 18 weeks, LOCF): 57.88%
- Percentage subjects reaching EAS target for LDL-C levels at Week 18, high-risk [1]: 47.5%
- Percentage subjects reaching EAS target for LDL-C levels at Week 18, overall [1]: 47.4%
- Percentage subjects reaching NCEP target for LDL-C levels at Week 18, high-risk [1]: 23.9%
- Percentage subjects reaching NCEP target for LDL-C levels at Week 18, overall [1]: 60.5%
- Percentage change from baseline to Week 18 in inflammatory marker CRP [1]: 25.21%
- Lsmean of percentage change from baseline to Week 18 in ApoA-I [1]: 5.86^b %
- Lsmean of percentage change from baseline to Week 18 in ApoB [1]: −50.21^b %
- Lsmean of percentage change from baseline to Week 18 in ApoB/ApoA-I ratio [1]: −52.03^b %
- Lsmean of percentage change from baseline to Week 18 in HDL-C [1]: 12.36^b %
- Lsmean of percentage change from baseline to Week 18 in LDL-C [1]: −57.88^b %
- Lsmean of percentage change from baseline to Week 18 in LDL-C/HDL-C ratio [1]: −61.69^b %
- Lsmean of percentage change from baseline to Week 18 in Non-HDL-C/HDL-C ratio [1]: −59.40^b %
- Lsmean of percentage change from baseline to Week 18 in TC [1]: −46.35^b %
- Lsmean of percentage change from baseline to Week 18 in TC/HDL-C ratio [1]: −51.44^b %
- Lsmean of percentage change from baseline to Week 18 in TG [1]: −27.82^ns %
